According to patent US12082907B2, “Systems, methods, and apparatus for multichannel imaging of fluorescent sources in real-time” (Memorial Sloan Kettering Cancer Center, priority 2013, dated 2024):

Tested on: spontaneous melanoma miniswine model
Experiment: Pre-operative PET-CT SLN mapping in spontaneous melanoma miniswine model
Type: in vivo, Sinclair miniature swine
Text: FIG. 6 depicts imaging of metastatic disease in a spontaneous melanoma miniswine model, in accordance with an embodiment of the present disclosure. ^124I-cRGDY-PEG-C dots and combined PET-optical imaging approaches can evaluate SLN mapping in a spontaneous melanoma miniswine model (Misfeldt, Vet. Immunol. Immunopathol. (1994); Oxenhandler, Am. J. Pathol. (1979); Millikan, J. Invest. Dermatol. (1974)) (Sinclair miniature swine, Sinclair Research Center). Image-guided metastatic disease detection, staging, and the assessment of differential tumor burden in SLN/s were evaluated in 4-10 kg miniswine (n=5) in conjunction with correlative histopathology. […]
FIGS. 7A-7I depict image-guided SLN Mapping in a spontaneous melanoma miniswine model using pre-operative PET imaging, in accordance with an embodiment of the present disclosure. These studies were expanded to include optical imaging using the portable ArteMIS™ fluorescence camera system, along with radiodetection using the gamma probe, for performing real-time assessments of the draining tumor lymphatics and nodal metastases. […] FIG. 7I depicts radioactivity levels of the primary tumor, SLN (in vivo, ex vivo), and a site remote from the primary tumor (i.e., background), using a handheld gamma probe. […]

2-deoxy-2-[^18F]fluoro-D-glucose [^18F-FDG]
discrimination of metastatic disease from inflammatory processes (miniswine with granulomatous inflammatory changes (n=3), PET-CT): failed to detect metastatic disease | detection of nodal metastases on PET-CT (representative miniswine, neck nodes, dynamic imaging over 1 hour): clear absence of nodal metastases
